These results are taken from publication PMC12508156, “Non-canonical dihydrolipoyl transacetylase promotes chemotherapy resistance via mitochondrial tetrahydrofolate signaling” (Nature Communications, 2025).

“And” between values parts separate entries of the source, which are not always exact repeats. Identical values can stand only once.

One assay deals with A549cisR cells. Put plainly: Colony formation assay. The format is cell-based, human. The conditions noted are these: 2 μg/ml cisplatin 24 h, then 10 days, normalised, n=1-3: biological replicates. The procedure: (§1) Cell viability was determined using the CellTiter-Glo Luminescent Cell Viability Assay. […] Subsequently, the cells were cultured in complete medium for an additional 10 days, and the resulting colonies were visualized by staining with crystal violet and quantified using ImageJ software. For cell cycle analysis, cells fixed with 70% ethanol were stained with RNase A (100 µg/mL) and propidium iodide (50 μg/ml) for 30 min at 37 °C, and DNA content distribution was measured using flow cytometry (BD Symphony A3) and analyzed with FlowJo software (v10.9). Apoptotic cell death was assessed via FITC-conjugated annexin V and propidium iodide staining.

The subject of the next assay is KB-3-1cisR cells. Put plainly: Colony formation assay. The note with it: 5 μg/ml cisplatin 24 h, then 10 days, normalised, n=1-3: biological replicates. It counts as cell-based, human. The protocol:
as §1

The target in assay [1] is T1, pyruvate dehydrogenase complex (PDC) (Homo sapiens, UniProt P08559+P09622+P10515).
T1 construct: endogenous in cells; host or cells: A549cisR and KB-3-1cisR cells (lysates; Abcam PDH Enzyme Activity Microplate Assay Kit)
T1 sequence (P08559 30-390): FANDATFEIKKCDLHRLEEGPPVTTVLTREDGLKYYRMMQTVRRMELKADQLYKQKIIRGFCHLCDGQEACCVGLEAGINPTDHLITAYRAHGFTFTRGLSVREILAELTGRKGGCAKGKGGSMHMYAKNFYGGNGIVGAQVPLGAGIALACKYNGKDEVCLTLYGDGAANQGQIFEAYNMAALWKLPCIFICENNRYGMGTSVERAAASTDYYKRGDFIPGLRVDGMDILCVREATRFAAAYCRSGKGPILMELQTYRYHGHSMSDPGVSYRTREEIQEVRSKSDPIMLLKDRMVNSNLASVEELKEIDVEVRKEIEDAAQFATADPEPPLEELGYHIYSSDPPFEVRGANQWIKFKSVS
T1 sequence (P10515 87-647): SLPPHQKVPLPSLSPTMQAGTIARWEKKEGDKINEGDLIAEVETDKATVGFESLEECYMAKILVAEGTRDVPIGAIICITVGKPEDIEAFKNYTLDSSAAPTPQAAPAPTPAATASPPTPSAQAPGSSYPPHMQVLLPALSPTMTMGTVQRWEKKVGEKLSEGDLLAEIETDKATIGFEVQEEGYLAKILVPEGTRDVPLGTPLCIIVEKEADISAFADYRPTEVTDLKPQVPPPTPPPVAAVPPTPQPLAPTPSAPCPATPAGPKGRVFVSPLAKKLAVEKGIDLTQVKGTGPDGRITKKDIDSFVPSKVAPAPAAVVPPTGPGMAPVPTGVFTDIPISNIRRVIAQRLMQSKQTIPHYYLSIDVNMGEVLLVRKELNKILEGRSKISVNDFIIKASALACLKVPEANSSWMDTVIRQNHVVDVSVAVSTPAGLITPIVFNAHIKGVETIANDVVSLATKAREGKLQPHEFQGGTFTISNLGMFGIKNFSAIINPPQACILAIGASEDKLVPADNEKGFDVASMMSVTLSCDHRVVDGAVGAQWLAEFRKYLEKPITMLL
T1 sequence (P09622 36-509): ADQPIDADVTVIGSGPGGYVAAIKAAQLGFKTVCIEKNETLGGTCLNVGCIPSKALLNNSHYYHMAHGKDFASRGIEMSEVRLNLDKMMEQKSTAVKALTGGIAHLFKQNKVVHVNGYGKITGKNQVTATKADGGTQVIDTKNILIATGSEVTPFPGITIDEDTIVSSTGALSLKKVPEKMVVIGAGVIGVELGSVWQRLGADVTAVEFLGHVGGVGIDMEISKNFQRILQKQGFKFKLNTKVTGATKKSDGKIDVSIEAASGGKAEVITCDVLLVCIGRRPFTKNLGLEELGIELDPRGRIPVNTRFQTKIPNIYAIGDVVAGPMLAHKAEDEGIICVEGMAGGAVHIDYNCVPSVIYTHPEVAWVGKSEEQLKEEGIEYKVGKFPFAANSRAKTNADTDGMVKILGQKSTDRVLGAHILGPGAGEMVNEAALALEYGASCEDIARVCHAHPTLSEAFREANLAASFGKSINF
Put plainly: PDC activity (PDH enzyme activity microplate assay). The format is cell-based. The note with it: cisplatin 24 h, NADH production from PDH reaction, normalised, n=1-3: biological replicates, listed as cis. The procedure: Cellular metabolic states were examined through various assays. […] Intracellular H2O2, NADPH, acetyl-CoA, and GSH/GSSG ratios were quantified using commercial assay kits as listed in the Reagents. Intracellular ATP levels were determined utilizing the ATP bioluminescent somatic cell assay and normalized to the total protein concentrations. The de novo synthesized RNA and proteins were assessed in cancer cells using commercial assays following the manufacturer’s protocols. In brief, O-propargyl-puromycin or uridine analog, 5-EU, was applied to stop translation or modify RNA. Polypeptides or modified RNA were measured using fluorescent azide with Ex/Em at 494/521 nm. PDC activity was determined by measuring the reduction of NAD+ to NADH during the conversion of pyruvate into acetyl-CoA. To estimate the activity of the pyruvate dehydrogenase complex (PDC), PDH (E1 subunit) activity was measured using the Pyruvate Dehydrogenase Enzyme Activity Microplate Assay Kit (Abcam) according to the manufacturer’s instructions. Briefly, A549^cisR and KB-3-1^cisR cells with or without DLAT knockdown were harvested, washed with PBS, and lysed using the supplied detergent solution. After quantifying protein concentration, lysates were diluted to 10 mg/ml in 1 ⅹ buffer, and 200 μl of assay solution was added to each well, and absorbance at 450 nm was measured kinetically every 30 s for 30 min at room temperature using a microplate reader.

As to `N.N.[Cl][Pt][Cl]` [cisplatin], the Colony formation assay with A549cisR cells (A549cisR pLKO.1) was 1.111 and 0.9965 and 1.059; in the assay on A549cisR cells (A549cisR shDLAT #1), 0.545 and 0.5035 and 0.4723; in the assay on A549cisR cells (A549cisR shDLAT #2), 0.5398 and 0.5242 and 0.4931; with KB-3-1cisR cells (KB-3-1cisR pLKO.1) it was 0.9446 and 0.763 and 0.8564; in the assay with KB-3-1cisR cells (KB-3-1cisR shDLAT #1), 0.1843 and 0.1505 and 0.2102; with KB-3-1cisR cells (KB-3-1cisR shDLAT #2), 0.2154 and 0.1946 and 0.1246. For the same molecule, the PDC activity in assay [1] (A549cisR pLKO.1) is 0.9844 and 1.125 and 1.078; in assay [1] (A549cisR shDLAT) it was 0.375 and 0.4219; in assay [1] (KB-3-1cisR pLKO.1) it was 1.12 and 1.073; in assay [1] (KB-3-1cisR shDLAT), 0.06728 and 0.05145 and 0.04749.
